From patent US10865222B2, “Neisseria gonorrhoeae therapeutic based on CMP-nonulosonate sugars” (priority 2014, dated 2020)
Entries after “also recorded” stand apart in the source; their conditions may differ.

Legend:
[1] = tested on: N. gonorrhoeae F62 ΔIgtD; assay: Whole cell ELISA for Ab binding and complement component deposition; type: cell-based; settings: for complement deposition (C3, C4 and fB) and Ig binding: 3.3% and 10% NHS; for Neu5Ac-mediated decrease in IgG binding and complement deposition (C4, C3, factor Bb): analogue 20, 2 or 0.2 μg/ml 15 min after CMP-Neu5Ac 20 μg/ml, 10% and 3.3% NHS
Method: FIG. 4. Complement C3 and C4 deposition on, and factor B binding to N. gonorrhoeae bearing nonulosonic acid analogues on LOS. N. gonorrhoeae F62 ΔIgtD was grown in media alone (open bars), or media supplemented with 20 μg/ml (˜30 μM) of each of the indicated CMP-nonulosonates. Bacteria were incubated with either 3.3% or 10% NHS at 37° C. for 10 min and IgG and IgM binding, and C3, C4 and factor B deposited on bacteria were measured by whole cell ELISA. Data with 3.3% and 10% NHS is shown by hatched and solid bars, respectively. Measurement of gonococcal H.8 lipoprotein antigen was performed to ensure similar bacterial capture to microtiter wells. The mean (SD) of triplicate observations is shown.
FIG. 6. CMP-Neu5Ac9Az and CMP-Leg5Ac7Ac interfere with inhibition of the classical and alternative pathways of complement mediated by CMP-Neu5Ac. N. gonorrhoeae F62 ΔIgtD was incubated with 20 μg/ml (˜30 μM) CMP-Neu5Ac, followed in 15 min by the addition of CMP-Neu5Ac9Az or CMP-Leg5Ac7Ac (at concentrations of 20, 2 or 0.2 μg/ml final) and bacteria were incubated for 2 h as described in FIG. 5. Bacteria were incubated in 10% NHS and Ab binding and complement deposition studies were carried out by ELISA as described in FIG. 4. The mean (SD) of two independent experiments is shown.
Binding of IgG and IgM to, and deposition of complement components C3, C4 and factor B on N. gonorrhoeae F62 ΔIgtD grown in the presence of the following CMP-nonulosonates was examined based on results of bactericidal assays and fH binding. […] N. gonorrhoeae F62 ΔIgtD with an unmodified (unsialylated) LNT LOS was used as the control serum sensitive strain. Experiments were carried out using serum concentrations of 10% and 3.3%, which represented the serum concentrations that produced discriminating phenotypes with Neu5Ac9Ac and Neu5Gc8Me.
To define the mechanism whereby Neu5Ac9Az and Leg5Ac7Ac blocked complement resistance by Neu5Ac, we studied Ab binding to, and complement component deposition on N. gonorrhoeae F62 ΔIgtD that was incubated with CMP-Neu5Ac (20 μg/ml), followed 15 min later with either CMP-Neu5Ac9Az or CMP-Leg5Ac7Ac at concentrations of 20, 2 or 0.2 μg/ml. Controls included bacteria grown in the absence of any CMP-nonulosonate, or bacteria grown in CMP-Neu5Ac alone.
C3 and C4 fragment deposition on, and factor B binding to bacteria were measured by whole cell ELISA as described previously (14, 15). Briefly, 2×10^8 organisms in HBSS^++ were incubated with NHS (at concentrations of 3.3% or 10%) in a reaction volume of 100 μl for 10 min at 37° C. This time point was chosen based on the kinetics of complement deposition on gonococci in previously published data (15). Reactions were stopped after 10 min by washing three times with ice-cold HBSS containing 5 mM phenylmethylsulfonyl fluoride at 4° C. Organisms were resuspended in 200 μl of the same buffer, and 50 μl of each sample applied per well of a 96-well U-bottomed polystyrene microtiter plate (Dynatech Laboratories, Inc., Chantilly, Va.) and incubated for 3 h at 37° C. Plates were washed with PBS containing 0.05% Tween 20. Primary antibodies (polyclonal goat anti-human C3, C4 and factor B) were diluted in PBS, and secondary antibodies diluted in PBS-0.05% Tween 20 prior to use. To ensure similar capture of bacteria incubated under different conditions, the amount of gonococcal H.8 antigen (16) expression using MAb 2-8C-4-1 (13), followed by anti-mouse IgG-alkaline phosphatase conjugate, was measured.

[2] = tested on: Ng 398078 (expresses P^K-like structure on HepI); assay: Complement resistance of Ng 398078 (serum bactericidal assay); type: cell-based, N. gonorrhoeae; settings: 10% normal human serum
Method: CMP-Leg5Ac7Ac and CMP-Neu5Ac9Az also counteracted CMP-Neu5Ac-mediated serum resistance of a P^K LOS expressing isolate called 398078 (Table 4).
Serum bactericidal assays were performed as described previously (11). Bacteria harvested from an overnight culture on chocolate agar plates were grown in liquid media containing the specified concentration of CMP-nonulosonate as specified for each experiment. Approximately 2000 CFU of F62 ΔIgtD were incubated with NHS (concentration specified for each experiment). The final reaction volumes were maintained at 150 μl. Aliquots of 25 μl of reaction mixtures were plated onto chocolate agar in duplicate at the beginning of the assay (t0) and again after incubation at 37° C. for 30 min (t30). Survival was calculated as the number of viable colonies at t30 relative to t0.

[3] = CMP-nonulosonate 20 μg/ml, NHS 3.3% or 10%
[4] = 10% serum, compared with unsialylated F62 ΔIgtD
[5] = CMP-NulO 20 μg/ml added to media 15 min after CMP-Neu5Ac 20 μg/ml

CC(=O)NC1C(O)CC(OP(=O)(O)OCC2OC(n3ccc(N)nc3=O)C(O)C2O)(C(=O)O)OC1C(O)C(O)CO [CMP-Neu5Ac, CMP-5-acetamido-3,5-dideoxy-D-glycero-D-galacto-nonulosonic acid, reference compound]
complement deposition (C3, C4 and fB) and Ig binding ([1]; CMP-nonulosonate 20 μg/ml): maximal complement inhibition
IgG binding [1, 3]: decreased IgG binding substantially
IgM binding [1, 3]: small but reproducible decrease
% survival [mean (range)] ([2]; CMP-NulO alone at 20 μg/ml): 57.5 (1.6) %

COC(CO)C(O)C1OC(OP(=O)(O)OCC2OC(n3ccc(N)nc3=O)C(O)C2O)(C(=O)O)CC(O)C1NC(=O)CO [CMP-Neu5Gc8Me, CMP-5-hydroxyacetamido-8-O-methyl-3,5-dideoxy-D-glycero-D-galacto-nonulosonic acid]
C3, C4 and factor B deposition ([1]; 3.3% serum): low levels
C3, C4 and factor B deposition [1, 4]: only a modest decline
IgG binding [1, 3]: reduced IgG binding

5,7-diacetamido-3,5,7,9-tetradeoxy-D-glycero-D-galacto-nonulosonic acid [CMP-Leg5Ac7Ac]
complement deposition (C3, C4 and fB) and Ig binding ([1]; CMP-nonulosonate 20 μg/ml): highest levels of complement deposition and Ig binding
Neu5Ac-mediated decrease in IgG binding and complement deposition (C4, C3, factor Bb) [1]: least amount of complement inhibition; also recorded: blocked this decrease
% survival [mean (range)] [2, 5]: 0 (0) %
% survival [mean (range)] ([2]; CMP-NulO alone at 20 μg/ml): 0 (0) %

CC(=O)N[C@H]1[C@H]([C@H](O)[C@H](O)COC(C)=O)OC(OP(=O)(O)OC[C@H]2O[C@@H](n3ccc(N)nc3=O)[C@H](O)[C@@H]2O)(C(=O)O)C[C@@H]1O (stereo partly drawn) [CMP-Neu5Ac9Ac, CMP-5-acetamido-9-O-acetyl-3,5-dideoxy-D-glycero-D-galacto-nonulosonic acid]
C3, C4 and factor B deposition ([1]; 3.3% serum): low levels
C3, C4 and factor B deposition [1, 4]: only a modest decline
IgG binding [1, 3]: reduced IgG binding

CC(=O)N[C@H]1[C@H]([C@H](O)[C@H](O)CN=[N+]=[N-])OC(OP(=O)(O)OC[C@H]2O[C@@H](n3ccc(N)nc3=O)[C@H](O)[C@@H]2O)(C(=O)O)C[C@@H]1O (stereo partly drawn) [CMP-Neu5Ac9Az, CMP-5-acetamido-9-azido-3,5,9-trideoxy-D-glycero-D-galacto-nonulosonic acid]
complement deposition (C3, C4 and fB) and Ig binding ([1]; CMP-nonulosonate 20 μg/ml): highest levels of complement deposition and Ig binding
Neu5Ac-mediated decrease in IgG binding and complement deposition (C4, C3, factor Bb) [1]: blocked this decrease
% survival [mean (range)] [2, 5]: 7.5 (5.2) %
% survival [mean (range)] ([2]; CMP-NulO alone at 20 μg/ml): 7.1 (2.3) %
